The source of these data is EP1015457B1, “1,3-DIOXOLO/4,5-H//2,3/BENZODIAZEPINE DERIVATIVES AS AMPA/KAINATE RECEPTOR INHIBITORS” (EGIS GYOGYSZERGYAR RT., priority 1997, dated 1999).

Each structure is given as a SMILES string. Read-outs that look alike come from different tables or passages of the source.

Assay [1] has as its system CAl neurones of rat hippocampus. The experiment in a line: PSI (inhibition of population spike) test. It is filed as cell-based. To be noted: electric stimulation of Shaffer collateral comissural pathway. Here is the method: PSI (inhibition of population spike) test
The field potentials (population spike) evoked by electric stimulation of the Shaffer collateral comissural pathway were measured in the CAl neurones of rat hippocampus. The population spike can be inhibited by AMPA/kainate antagonists. The non-cumulative IC50 values are shown in Table I. /Tarnawa, I., Molnár, P., Gaál, L., Andrási, F.: Inhibition of hippocampal field potentials by GYKI 52466 in vitro and in vivo, Acta Physiol. Hung., 79(2), 163-9 (1992)/.

Assay [2] relates to isolated retinal preparation of the chicken. Kind of assay: SD (spreading depression) test, evoked by kainate. The assay is classed as cell-based. The settings on record: Gallus gallus, chicken retina. An excerpt: SD (spreading depression) test
The method is based on the phenomenon of spreading depression evoked by kainate in isolated retinal preparation of the chicken. The formation of spreading depression is inhibited (delayed) by AMPA/kainate antagonists. /Sheardown M.J.: The triggering of spreading depression in the chicken retina: a pharmacological study, Brain Res., 607(1-2), 189-194 (1993)/.

Assay [3] relates to male NMRI mice. Kind of assay: Muscle relaxant effect, 60° inclined screen according to Hoppe. It is filed as in vivo. The settings on record: for ED50: Mus musculus, determined at the time of maximal effect; for ED50 / Muscle relaxant effect duration: ip.; for ED50 / Muscle relaxant effect duration / muscle relaxant effect in the inclined screen: mice; for Muscle relaxant effect duration: time of last reading when the effect was at least 30 %; for muscle relaxant effect in the inclined screen: 60 mg/kg dose. On the procedure: The assay was done according to Hoppe in male NMRI mice weighing 20 to 25 g, with 10 animals in each group /Hoppe, J.O., J . Pharmacol. Exp. Ther., 100, 333 (1950)/. Following the ip. treatment of animals, the number of mice showing muscle weakness were recorded at every 10 minutes in the first hour and at half hour intervals afterwards. The animals falling off the 60° inclined screen within 30 seconds were considered positive. ED50 values of the given compounds were determined at each time. The duration of effect was defined as the time of last reading when the effect was at least 30 %.

Assay [4] has as its system male NMRI mice. Kind of assay: Maximal electroshock test (MES). The settings on record: Mus musculus, 0.5 h, ip., inhibition of maximal electroshock, 30 minutes after treatment. It is filed as in vivo. Here is the method: Maximal electroshock test (MES)
Male NMRI mice weighing 20 to 30 g were used for the method of Swinyard et al. /Swinyard, E.A., Brown, W.C. and Goodman, L.S.: Comparative assays of antiepileptic drugs in mice and rats, J. Pharmacol., 106, 319 (1952)/. The animals, 10 in each group, were treated ip. either with various doses of the test substance or with vehicle. After 30 minutes, a 50 Hz, 40 mA electroshock was applied for 0.4 s through corneal electrodes. The number of animals that developed tonic extensor convulsion of the hind-limbs was registered, percent inhibition was calculated, and ED50 values were determined by the method of Litchfield and Wilcoxon /Litchfield, J.T., Wilcoxon, F.A.: A simplified method of evaluating dose-effect experiments, J. Pharmacol. Exp. Ther., 96, 99 (1949)/ and summarized in Table III.

In the next assay the test system is male DBA/2j strain mice. Kind of assay: Audiogenic seizure (AS) test. It is filed as in vivo. The settings on record: Mus musculus, ip., DBA/2j mice, inhibition of sound induced seizure. Here is the method: Audiogenic seizure (AS) test
The experiments were carried out by the slightly modified method of De Sarro et al. /De Sarro, G.B., Croucher, M.J. and Meldrum, B.S.: Anticonvulsant action of DS 103-282, Neuropharm., 23, 525 (1984)/. Groups of 8 male DBA/2j strain mice weighing 7 to 14 g were treated ip. with the test substance in 10 ml/kg volume. 15 minutes later, the animals were placed into a covered glass container (30 cm in diameter) and exposed to a 14 kHz 120 dB tone for 60 s at the most. Seizure response was assessed using the following scale: 0 = normal behaviour, 1 = wild running, 2 = clonus, 3 = tonic flexor seizure, 4 = tonic extensor seizure. The maximum response during the 60 s exposure was recorded for each animal. Lethality was also noted. The ED50 values were determined by the method of Litchfield and Wilcoxon concerning the inhibition of clonic seizures and tonic extensor convulsions.

Assay [5] relates to male NMRI mice. The experiment in a line: Global ischemia induced by magnesium chloride (gasping time). The assay is classed as in vivo. The settings on record: for Effect in % (increase in gasping time): Dose 30 mg/kg ip., magnesium chloride iv. after 30 minutes; for ID50: ip., gasping time, calculated by linear regression. On the procedure:
Global ischemia induced by magnesium chloride
The experiments were carried out as described by Berga et al. /Berga, P., Beckett, P.R., Roberts, D.J., Llenas, J., Massingham, R.: Synergistic interactions between piracetam and dihydroergocristine in some animal models of cerebral hypoxia and ischemia, Arzneim.--Forsch., 36, 1314-1320 (1986)/. Groups of 10 male NMRI mice weighing 20 to 25 g were treated ip. with the test substance in […]. After 30 minutes, saturated aqueous magnesium chloride solution was applied iv. (5 ml/kg) resulting in an immediate cardiac arrest. The elapsed time between the iv. injection and the last gasping was measured (gasping time). The means of the treated groups were expressed as percent of control. Statistical analysis was done by ANOVA followed by DUNCAN test. The dose resulting in 50 % descrease in gasping time (ID50) was calculated by linear regression.

Where [6] appears, read: clonic seizures, read-out: AS ED50 clonic convulsion.
Setting [7] is: tonic extensor convulsions, read-out: AS ED50 tonic convulsion.

Take `CC1Cc2cc3c(cc2C(c2ccc(N)cc2)=NN1C(=O)NC1CC1)OCO3` (racemic) [Example 2, (±)-5-(4-Aminophenyl)-7-(N-cyclopropylcarbamoyl)-7,8-dihydro-8-methyl-9H-1,3--dioxolo/4,5-h//2,3/benzodiazepine]: in assay [1], the “Percent inhibition of population spike (10 micron)” value (“Percent inhibition” below) is 100%. Moreover, half-maximal inhibition in assay [2] (IC50) was put at 1.3 µM. Also, the median effective dose (ED50) was 21.1 mg/kg in the assay on male NMRI mice [3], 4.6 mg/kg with male NMRI mice [4], 2.5 mg/kg in the assay with male DBA/2j strain mice (setting [6]) and 1.6 mg/kg with male DBA/2j strain mice (setting [7]). In the assay on male NMRI mice [3], the “Muscle relaxant effect duration” value is “higher than 2 hr”. The “Effect in % (increase in gasping time)” value in the assay on male NMRI mice [5] was 61%. The ID50 in the assay with male NMRI mice [5] was 13 mg/kg.
Turning to `CONC(=O)N1N=C(c2ccc(N)cc2)c2cc3c(cc2CC1C)OCO3` (racemic) [Example 3, (±)-5-(4-Aminophenyl)-7,8-dihydro-8-methyl--7-(N-methoxycarbamoyl)-9H-1,3-dioxolo/4,5-h//2,3/benzodiazepine], in assay [1], the “Percent inhibition” value amounted to 95%. The midpoint of inhibition in assay [2], the IC50, lay at 1.5 µM. Also, in the assay with male NMRI mice [3], it took a dose of 18.1 mg/kg to reach the 50% effect level (ED50) and the “Muscle relaxant effect duration” value was determined as 4 h. In the assay on male NMRI mice [4], this compound showed a median effective dose (ED50) of 3.7 mg/kg. Moreover, in the assay on male NMRI mice [5], the “Effect in % (increase in gasping time)” value is given as 52% and the ID50 is listed as 27 mg/kg.
As to `CC1Cc2cc3c(cc2C(c2ccc(N)cc2)=NN1C(=O)NN)OCO3` (racemic) [Example 4, (±)-5-(4-Aminophenyl)-7-(N-aminocarbamoyl)--7,8-dihydro-8-methyl-9H-1,3-dioxolo/4,5-h//2,3/benzodiazepine], the “Percent inhibition” value in assay [1] was determined as 95%.
Take `CC1=NN=C(c2ccc(N)cc2)c2cc3c(cc2C1)OCO3` [A, 8-Methyl-5--(4-aminophenyl)-9H-1,3-dioxolo/4,5-h//2,3/benzodiazepine, reference compound]: in assay [1], the “Percent inhibition” value was 58%. This compound also came in with an IC50 in assay [2] of 9.5 µM. Moreover, the “muscle relaxant effect in the inclined screen” value in the assay on male NMRI mice [3] is “all the treated animals showed muscle relaxation”. The ED50 in the assay on male NMRI mice [3] was 24.5 mg/kg; in the assay with male NMRI mice [4], 6.9 mg/kg; in the assay on male DBA/2j strain mice (setting [6]), 4.3 mg/kg; in the assay on male DBA/2j strain mice (setting [7]), 3.6 mg/kg. Also, the muscle relaxant effect entry in the assay on male NMRI mice [3] (at about 4.5 times higher dose than the anticonvulsive ED50 (6.9 mg/kg)) is “about 50%”. In addition, the “Muscle relaxant effect duration” value in the assay on male NMRI mice [3] stood at 1 h. For the same compound, in the assay on male NMRI mice [5], the “Effect in % (increase in gasping time)” value came out at 55%. In addition, the ID50 in the assay with male NMRI mice [5] was 30 mg/kg.
For the compound `CC1=Cc2cc3c(cc2C(c2ccc(N)cc2)=NN1C(=O)NCCN1CCOCC1)OCO3` [Example 6, 5-(4-Aminopheayl)-8-methyl-7H-1,3-dioxolo/4,5-h//2,3/benzodiazepine-7-carboxylic acid-(2-morpholino-4-ylethyl)amide], the IC50 in assay [2] came out at 6.5 µM. Further, the “muscle relaxant effect in the inclined screen” value in the assay on male NMRI mice [3] was “no muscle relaxant effect”. The compound also showed a 50% effective dose (ED50) in the assay on male NMRI mice [4] of roughly 10 mg/kg.
In turn, `CNC(=O)N1N=C(c2ccc(N)cc2)c2cc3c(cc2C=C1C)OCO3` [Example 11, 5-(4-Aminophenyl)-8-methyl-7-methylcarbamoyl-7H-1,3-dioxolo/4,5-h//2,3/benzodiazepine] returned an IC50 in assay [2] of 2.8 µM.

What is called IC50 is the concentration needed to halve the response being measured. The low end stands for greater potency, the high end for weaker potency. The term ED50 denotes the midpoint of the dose-response relation.
